Reference: US20070219186A1, “Pyrazolo[1,5-A]pyrimidine derivatives and methods of use thereof” (priority 2006, published 2007)
Where two headings read alike, the source gives them in different places.

Target: T1, human B-Raf (Homo sapiens, UniProt P15056)
T1 construct: Flag; GST; made in house; host or cells: Sf9 insect cells (B-Raf); E. coli (MEK1-GST)
Experiment: B-Raf Kinase to MEK1 ELISA
Type: biochemical
Conditions: for inhibition at 10 µM: read-out: % Inhib./10 uM
In short: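 Flag/GST-tagged human B-Raf (Sf9, ~20 ng/point) phosphorylates non-active GST-MEK1 (50 nM final) with ATP and MgCl2 in MOPS pH 7.2 buffer, 60 min at RT. Product is captured on anti-GST plates; MEK1 pSer217/221 is read by phospho-antibody plus europium conjugate (DELFIA).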

[1] = median, cpd concentrations from 10 μM to 30 nM in half log dilutions, read-out: Median IC50

T1 sequence (P15056 whole entry): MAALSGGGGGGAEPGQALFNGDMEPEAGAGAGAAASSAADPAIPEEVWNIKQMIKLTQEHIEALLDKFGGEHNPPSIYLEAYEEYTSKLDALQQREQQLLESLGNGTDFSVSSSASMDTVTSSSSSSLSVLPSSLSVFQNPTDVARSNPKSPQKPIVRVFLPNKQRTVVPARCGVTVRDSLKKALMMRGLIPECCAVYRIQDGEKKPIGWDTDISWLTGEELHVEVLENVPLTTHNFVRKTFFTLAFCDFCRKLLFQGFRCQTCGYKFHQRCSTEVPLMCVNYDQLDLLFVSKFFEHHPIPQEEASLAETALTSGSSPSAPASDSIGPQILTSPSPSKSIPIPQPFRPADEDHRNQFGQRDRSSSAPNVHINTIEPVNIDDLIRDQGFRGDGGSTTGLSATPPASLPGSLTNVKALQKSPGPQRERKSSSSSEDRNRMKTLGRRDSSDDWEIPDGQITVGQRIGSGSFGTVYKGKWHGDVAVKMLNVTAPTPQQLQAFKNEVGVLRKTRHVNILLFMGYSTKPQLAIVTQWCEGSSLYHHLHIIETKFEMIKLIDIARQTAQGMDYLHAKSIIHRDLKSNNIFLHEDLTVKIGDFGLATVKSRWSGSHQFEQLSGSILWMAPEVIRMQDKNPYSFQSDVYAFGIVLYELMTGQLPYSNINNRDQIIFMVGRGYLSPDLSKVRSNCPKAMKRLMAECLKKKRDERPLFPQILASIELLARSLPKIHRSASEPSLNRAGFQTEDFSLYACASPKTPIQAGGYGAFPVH

O=C(Nc1cccc(-c2ccnc3c(-c4ccnc(Cl)c4)cnn23)c1)c1cccc(C(F)(F)F)c1 [Example 301, N-{3-[3-(2-chloropyridin-4-yl)pyrazolo[1,5-a]pyrimidin-7-yl]phenyl}-3-(trifluoromethyl)benzamide]
IC50: 1730 nM | inhibition at 10 µM: 75%

Cc1cc(-c2cccc(NC(=O)c3cccc(C(F)(F)F)c3)c2)n2nc(-c3ccncc3)cc2n1 [Example 302, N-[3-(5-methyl-2-pyridin-4-ylpyrazolo[1,5-a]pyrimidin-7-yl)phenyl]-3-(trifluoromethyl)benzamide]
IC50 [1]: 800 nM | inhibition at 10 µM: 72%

CC(O)c1ccccc1-c1cnn2c(-c3cccc(NC(=O)c4cccc(C(F)(F)F)c4)c3)ccnc12 (centres unmarked) [Example 303, N-(3-{3-[2-(1-hydroxyethyl)phenyl]pyrazolo[1,5-a]pyrimidin-7-yl}phenyl)-3-(trifluoromethyl)benzamide]
IC50 [1]: 288 nM | inhibition at 10 µM: 80%

CC(O)c1cccc(-c2cnn3c(-c4cccc(NC(=O)c5cccc(C(F)(F)F)c5)c4)ccnc23)c1 (centres unmarked) [Example 304, N-(3-{3-[3-(1-hydroxyethyl)phenyl]pyrazolo[1,5-a]pyrimidin-7-yl}phenyl)-3-(trifluoromethyl)benzamide]
IC50 [1]: 195 nM | inhibition at 10 µM: 80%

Cc1ccccc1-c1cnn2c(-c3cccc(NC(=O)c4cccc(C(F)(F)F)c4)c3)ccnc12 [Example 305, N-{3-[3-(2-methylphenyl)pyrazolo[1,5-a]pyrimidin-7-yl]phenyl}-3-(trifluoromethyl)benzamide]
IC50: 893 nM | inhibition at 10 µM: 54%

O=C(Nc1cccc(-c2ccnc3c(-c4cnn(CCN5CCCC5)c4)cnn23)c1)c1cccc(C(F)(F)F)c1 [Example 307, N-(3-{3-[1-(2-pyrrolidin-1-ylethyl)-1H-pyrazol-4-yl]pyrazolo[1,5-a]pyrimidin-7-yl}phenyl)-3-(trifluoromethyl)benzamide]
IC50: 393 nM

Cn1cc(-c2cnn3c(-c4cccc(NC(=O)c5cccc(C(F)(F)F)c5)c4)ccnc23)cn1 [Example 308, N-{3-[3-(1-methyl-1H-pyrazol-4-yl)pyrazolo[1,5-a]pyrimidin-7-yl]phenyl}-3-(trifluoromethyl)benzamide]
IC50 [1]: 281 nM | inhibition at 10 µM: 86%

O=Cc1cc(C=O)cc(-c2cnn3c(-c4cccc(NC(=O)c5cccc(C(F)(F)F)c5)c4)ccnc23)c1 [Example 310, N-{3-[3-(3,5-diformylphenyl)pyrazolo[1,5-a]pyrimidin-7-yl]phenyl}-3-(trifluoromethyl)benzamide]
IC50 [1]: > 10000 nM | inhibition at 10 µM: 37%

O=C(Nc1cccc(-c2ccnc3c(-c4ccc(F)nc4)cnn23)c1)c1cccc(C(F)(F)F)c1 [Example 311, N-{3-[3-(6-fluoropyridin-3-yl)pyrazolo[1,5-a]pyrimidin-7-yl]phenyl}-3-(trifluoromethyl)benzamide]
IC50: 10700 nM | inhibition at 10 µM: 80%

COc1ccc(-c2cnn3c(-c4cccc(NC(=O)c5cccc(C(F)(F)F)c5)c4)ccnc23)cn1 [Example 312, N-{3-[3-(6-methoxypyridin-3-yl)pyrazolo[1,5-a]pyrimidin-7-yl]phenyl}-3-(trifluoromethyl)benzamide]
IC50: 578 nM | inhibition at 10 µM: 77%

O=Cc1ccc(-c2cnn3c(-c4cccc(NC(=O)c5cccc(C(F)(F)F)c5)c4)ccnc23)o1 [Example 313, N-{3-[3-(5-formyl-2-furyl)pyrazolo[1,5-a]pyrimidin-7-yl]phenyl}-3-(trifluoromethyl)benzamide]
IC50 [1]: > 10000 nM | inhibition at 10 µM: 78%

O=C(O)c1cccc(-c2cnn3c(-c4cccc(NC(=O)c5cccc(C(F)(F)F)c5)c4)ccnc23)c1 [Example 314, 3-[7-(3-{[3-(trifluoromethyl)benzoyl]amino}phenyl)pyrazolo[1,5-a]pyrimidin-3-yl]benzoic acid]
IC50 [1]: 514 nM | inhibition at 10 µM: 82%
